According to ChEMBL document CHEMBL4130462, “Natural isoflavone biochanin A as a template for the design of new and potent 3-phenylquinolone efflux inhibitors against Mycobacterium avium” (Eur J Med Chem, 2017):
Converted amounts (≈) assume the structure as drawn.

Key:
[1] = system: Mycobacterium avium; conditions: in vivo, 72 h
Description: Antimycobacterial activity against Mycobacterium avium 104 mc'2 4 assessed as reduction in bacterial viability incubated for 3 days by MTT assay

[2] = system: Mycobacterium avium; conditions: isolate MAV3
[3] = system: Mycobacterium avium; conditions: 104
Description: Inhibition of multidrug resistance efflux pump in Mycobacterium avium 104 assessed as potentiation of clarithromycin -induced antibacterial activity by measuring clarithromycin MIC at 1/4 MIC incubated for 3 days by MTT assay

[4] = system: Mycobacterium avium; conditions: 104 mc'2 4
[5] = system: Mycobacterium avium; conditions: 104; remark: listed apart in the source
[6] = system: Mycobacterium avium; conditions: 104 mc'2 3
[7] = system: Mycobacterium avium; conditions: 104 mc'2 4; remark: listed apart in the source
[8] = system: Mycobacterium avium; conditions: isolate MAV3; remark: listed apart in the source
[9] = system: Mycobacterium avium; conditions: isolate MAV3; remark: listed apart in the source
[10] = system: Mycobacterium avium; conditions: isolate MAV1
[11] = system: Mycobacterium avium subsp. avium ATCC 25291
[12] = system: Mycobacterium avium; conditions: isolate MAV4
Description: Inhibition of multidrug resistance efflux pump in Mycobacterium avium isolate MAV4 assessed as potentiation of clarithromycin -induced antibacterial activity by measuring clarithromycin MIC at 1/2 MIC incubated for 3 days by MTT assay

[13] = system: Mycobacterium avium; conditions: isolate MAV1; remark: listed apart in the source
Description: Inhibition of multidrug resistance efflux pump in Mycobacterium avium isolate MAV1 assessed as potentiation of ofloxacin-induced antibacterial activity by measuring ofloxacin MIC at 1/4 MIC incubated for 3 days by MTT assay (Rvb = 4 ug/ml)

[14] = system: Mycobacterium avium subsp. avium ATCC 25291; remark: listed apart in the source
[15] = system: Mycobacterium avium; conditions: 104 mc'2 4; remark: listed apart in the source
[16] = system: Mycobacterium avium; conditions: isolate MAV4; remark: listed apart in the source
Description: Inhibition of multidrug resistance efflux pump in Mycobacterium avium isolate MAV4 assessed as potentiation of clarithromycin -induced antibacterial activity by measuring clarithromycin MIC at 1/4 MIC incubated for 3 days by MTT assay

[17] = Safety index, ratio of CC50 for test compound to CC50 for chlorpromazine for cytotoxicity in human monocyte-derived macrophages; format: cell-based, Macrophage cell line
[18] = system: Mycobacterium avium; conditions: isolate MAV2
[19] = system: Mycobacterium avium; conditions: isolate MAV3; remark: listed apart in the source
[20] = system: Mycobacterium avium; conditions: isolate MAV2; remark: listed apart in the source
[21] = system: Mycobacterium avium subsp. avium ATCC 25291; remark: listed apart in the source
[22] = system: Mycobacterium avium subsp. avium ATCC 25291; remark: listed apart in the source
[23] = system: Mycobacterium avium; conditions: 104 mc'2 3; remark: listed apart in the source
[24] = system: Mycobacterium avium; conditions: isolate MAV4; remark: listed apart in the source
[25] = system: Mycobacterium avium; conditions: isolate MAV1; remark: listed apart in the source
[26] = Cytotoxicity in human monocyte-derived macrophages assessed as reduction in cell viability incubated for 3 days by alamar blue dye based assay; design: species or system Macrophage cell line
[27] = system: Mycobacterium avium; conditions: isolate MAV3; remark: listed apart in the source
[28] = system: Mycobacterium avium; conditions: isolate MAV4; remark: listed apart in the source
[29] = system: Mycobacterium avium; conditions: 104; remark: listed apart in the source
[30] = system: Mycobacterium avium subsp. avium ATCC 25291; remark: listed apart in the source
Description: Inhibition of multidrug resistance efflux pump in Mycobacterium avium ATCC 25291 assessed as potentiation of clarithromycin -induced antibacterial activity by measuring clarithromycin MIC at 1/2 MIC incubated for 3 days by MTT assay

[31] = system: Mycobacterium avium subsp. avium ATCC 25291; remark: listed apart in the source
[32] = system: Mycobacterium avium; conditions: 104 mc'2 4; remark: listed apart in the source
[33] = system: Mycobacterium avium; conditions: 104 mc'2 4; remark: listed apart in the source
[34] = system: Mycobacterium avium; conditions: in vivo, 72 h; remark: listed apart in the source
Description: Antimycobacterial activity against Mycobacterium avium 104 mc'2 3 assessed as reduction in bacterial viability incubated for 3 days by MTT assay

[35] = system: Mycobacterium avium; conditions: isolate MAV3; remark: listed apart in the source
[36] = system: Mycobacterium avium; conditions: isolate MAV2; remark: listed apart in the source
Description: Inhibition of multidrug resistance efflux pump in Mycobacterium avium isolate MAV2 assessed as potentiation of clarithromycin -induced antibacterial activity by measuring clarithromycin MIC at 1/4 MIC incubated for 3 days by MTT assay (Rvb = >1024 ug/ml)

[37] = system: Mycobacterium avium subsp. avium ATCC 25291; remark: listed apart in the source
Description: Inhibition of multidrug resistance efflux pump in Mycobacterium avium ATCC 25291 assessed as potentiation of clarithromycin -induced antibacterial activity by measuring clarithromycin MIC at 1/4 MIC incubated for 3 days by MTT assay

[38] = system: Mycobacterium avium; conditions: 104 mc'2 3; remark: listed apart in the source
[39] = system: Mycobacterium avium; conditions: 104 mc'2 4; remark: listed apart in the source
[40] = system: Mycobacterium avium; experiment: Antimycobacterial activity against Mycobacterium avium isolate MAV3 assessed as reduction in bacterial viability incubated for 3 days by MTT assay; format: organism-based; conditions: 72 h
[41] = system: Mycobacterium avium; experiment: Antimycobacterial activity against Mycobacterium avium ATCC 25291 assessed as reduction in bacterial viability incubated for 3 days by MTT assay; format: organism-based; conditions: mycobacterium avium subsp. avium atcc 25291, 72 h
[42] = system: Mycobacterium avium; conditions: 104 mc'2 3; remark: listed apart in the source
[43] = system: Mycobacterium avium; conditions: 104 mc'2 4; remark: listed apart in the source
[44] = Safety index, ratio of MTC for test compound to MTC for chlorpromazine for cytotoxicity in human monocyte-derived macrophages; format: cell-based, Macrophage cell line
[45] = system: Mycobacterium avium; conditions: isolate MAV4; remark: listed apart in the source
[46] = system: Mycobacterium avium subsp. avium ATCC 25291; remark: listed apart in the source
[47] = system: Mycobacterium avium; conditions: isolate MAV2; remark: listed apart in the source
Description: Inhibition of multidrug resistance efflux pump in Mycobacterium avium isolate MAV2 assessed as potentiation of ofloxacin-induced antibacterial activity by measuring ofloxacin MIC at 1/4 MIC incubated for 3 days by MTT assay

[48] = system: Mycobacterium avium; conditions: 104 mc'2 3; remark: listed apart in the source
[49] = system: Mycobacterium avium; conditions: 104 mc'2 3; remark: listed apart in the source
[50] = system: Mycobacterium avium; conditions: 72 h
Description: Antimycobacterial activity against Mycobacterium avium 104 assessed as reduction in bacterial viability incubated for 3 days by MTT assay

[51] = system: Mycobacterium avium; conditions: isolate MAV1; remark: listed apart in the source
[52] = system: Mycobacterium avium; conditions: 104; remark: listed apart in the source
[53] = system: Mycobacterium avium; conditions: isolate MAV2; remark: listed apart in the source
Description: Inhibition of multidrug resistance efflux pump in Mycobacterium avium isolate MAV2 assessed as potentiation of clarithromycin -induced antibacterial activity by measuring clarithromycin MIC at 1/2 MIC incubated for 3 days by MTT assay (Rvb = >1024 ug/ml)

[54] = system: Mycobacterium avium; conditions: 104; remark: listed apart in the source
Description: Inhibition of multidrug resistance efflux pump in Mycobacterium avium 104 assessed as potentiation of clarithromycin -induced antibacterial activity by measuring clarithromycin MIC at 1/2 MIC incubated for 3 days by MTT assay

[55] = system: Mycobacterium avium; conditions: 104 mc'2 4; remark: listed apart in the source
[56] = system: Mycobacterium avium; conditions: isolate MAV2; remark: listed apart in the source
[57] = system: Mycobacterium avium; conditions: isolate MAV1; remark: listed apart in the source
[58] = system: Mycobacterium avium; conditions: 104; remark: listed apart in the source
[59] = system: Mycobacterium avium; conditions: 104 mc'2 4; remark: listed apart in the source
[60] = system: Mycobacterium avium; conditions: isolate MAV1; remark: listed apart in the source
[61] = system: Mycobacterium avium; conditions: isolate MAV3; remark: listed apart in the source
[62] = system: Mycobacterium avium; conditions: isolate MAV1; remark: listed apart in the source
[63] = system: Mycobacterium avium; conditions: isolate MAV4; remark: listed apart in the source
[64] = system: Mycobacterium avium; conditions: isolate MAV3; remark: listed apart in the source
[65] = system: Mycobacterium avium; conditions: 104; remark: listed apart in the source
[66] = system: Mycobacterium avium; conditions: 104; remark: listed apart in the source
[67] = system: Mycobacterium avium; conditions: isolate MAV2; remark: listed apart in the source
[68] = system: Mycobacterium avium; conditions: isolate MAV3; remark: listed apart in the source

Work on CCCOc1ccc(-c2cn(CCN(CC)CC)c3ccccc3c2=O)cc1 yielded an MIC [1] of 256 µg/mL (≈ 676 µM), an MIC [2] of 4 µg/mL (≈ 10.6 µM) and an MIC [3] of 1 µg/mL (≈ 2.64 µM). The MIC [4] was 128 µg/mL (≈ 338 µM), the MIC [5] was 3.12 µg/mL (≈ 8.26 µM) and the MIC [6] was 2 µg/mL (≈ 5.28 µM). It also gave an MIC [7] of 4 µg/mL (≈ 10.6 µM), an MIC [8] of 128 µg/mL (≈ 338 µM) and an MIC [9] of 32 µg/mL (≈ 84.5 µM). It also gave an MIC [10] of 16 µg/mL (≈ 42.3 µM), an MIC [11] of 128 µg/mL (≈ 338 µM) and an MIC [12] of 1 µg/mL (≈ 2.64 µM). The MIC [13] was 4 µg/mL (≈ 10.6 µM), the MIC [14] was 32 µg/mL (≈ 84.5 µM) and the MIC [15] was 3.12 µg/mL (≈ 8.26 µM). For the same compound, the MIC [16] was 8 µg/mL (≈ 21.1 µM), the selectivity ratio [17] was 2 to 4 and the MIC [18] was 2 µg/mL (≈ 5.28 µM). For the same compound, the MIC [19] was 16 µg/mL (≈ 42.3 µM), the MIC [20] was 16 µg/mL (≈ 42.3 µM) and the MIC [21] was 16 µg/mL (≈ 42.3 µM). The MIC [22] was 64 µg/mL (≈ 169 µM), the MIC [23] was 256 µg/mL (≈ 676 µM) and the MIC [24] was 2 µg/mL (≈ 5.28 µM). The MIC [25] was 8 µg/mL (≈ 21.1 µM), the CC50 at 72 h ([26]; human monocyte-derived macrophages) was 56.9 µM and the MTC ([26]; macrophage cell line, 72 h) was 10 µM. It also gave an MIC [27] of 12.5 µg/mL (≈ 33 µM), an MIC [28] of 16 µg/mL (≈ 42.3 µM) and an MIC [29] of 4 µg/mL (≈ 10.6 µM). For the same compound, the MIC [30] was 8 µg/mL (≈ 21.1 µM), the MIC [31] was 128 µg/mL (≈ 338 µM) and the MIC [32] was over 512 µg/mL. The MIC [33] was 256 µg/mL (≈ 676 µM), the MIC [34] was 256 µg/mL (≈ 676 µM) and the MIC [35] was 4 µg/mL (≈ 10.6 µM). The MIC [36] was 1020 µg/mL (≈ 2710 µM), the MIC [37] was 8 µg/mL (≈ 21.1 µM) and the MIC [38] was 512 µg/mL (≈ 1350 µM). It also gave an MIC [39] of 2 µg/mL (≈ 5.28 µM), an MIC [40] of 128 µg/mL (≈ 338 µM) and an MIC [41] of 256 µg/mL (≈ 676 µM). It also gave an MIC [42] of 128 µg/mL (≈ 338 µM), an MIC [43] of 6.25 µg/mL (≈ 16.5 µM) and a selectivity ratio [44] of 2 to 4. It also gave an MIC [45] of 256 µg/mL (≈ 676 µM), an MIC [46] of 8 µg/mL (≈ 21.1 µM) and an MIC [47] of 2 µg/mL (≈ 5.28 µM). The MIC [48] was 3.12 µg/mL (≈ 8.26 µM), the MIC [49] was 4 µg/mL (≈ 10.6 µM) and the MIC [50] was 256 µg/mL (≈ 676 µM). It also gave an MIC [51] of 2 µg/mL (≈ 5.28 µM), an MIC [52] of under 2 µg/mL and an MIC [53] of 64 µg/mL (≈ 169 µM). For the same compound, the MIC [54] was 0.5 µg/mL (≈ 1.32 µM), the MIC [55] was 8 µg/mL (≈ 21.1 µM) and the MIC [56] was 6.25 µg/mL (≈ 16.5 µM). It also gave an MIC [57] of 0.5 µg/mL (≈ 1.32 µM), an MIC [58] of 32 µg/mL (≈ 84.5 µM) and an MIC [59] of 512 µg/mL (≈ 1350 µM). For the same compound, the MIC [60] was 3.12 µg/mL (≈ 8.26 µM), the MIC [61] was 256 µg/mL (≈ 676 µM) and the MIC [62] was 6.25 µg/mL (≈ 16.5 µM). For the same compound, the MIC [63] was 8 µg/mL (≈ 21.1 µM), the MIC [64] was 8 µg/mL (≈ 21.1 µM) and the MIC [65] was 6.25 µg/mL (≈ 16.5 µM). For the same compound, the MIC [66] was 4 µg/mL (≈ 10.6 µM), the MIC [67] was 512 µg/mL (≈ 1350 µM) and the MIC [68] was 128 µg/mL (≈ 338 µM).
